Reference: patent publication US8618147B2, “Modified macrophage migration inhibitory factor inhibitors” (The Feinstein Institute for Medical Research, priority 2006, dated 2013)
“Also recorded” adds a separate entry of the source.

Assays:
[1] = versus 40% control; cited from earlier work
MIF = MIF (Homo sapiens (Human), UniProt P14174); test: MIF dopachrome tautomerase assay; assay type: biochemical; settings: (S)-isomer relative to (R)-isomer
Procedure: MIF tautomerase activity was measured by UV-Visible recording spectrophotometry (SHIMADZU, UV1600U). A fresh stock solution of L-dopachrome methyl ester was prepared at 2.4 mM through oxidation of L-3,4-dihydroxyphenylalanine methyl ester with sodium periodate. 1 μL of MIF solution (800-900 ng/mL) and 1 μL of a DMSO solution with various concentrations of the enzymatic inhibitor were added into a plastic cuvette (10 mm, 1.5 mL) containing 0.7 mL assay buffer (50 mM potassium phosphate, pH 7.2). Then L-dopachrome methyl ester solution (0.3 mL) was added to the assay buffer mixture. Activity was determined at room temperature and the spectrometric measurements were made at λ=475 nm for 20 seconds by monitoring the rate of decolorization of L-dopachrome methyl ester in comparison to a standard solution.

leukocyte recruitment = test: Air pouch carrageenan model of acute inflammation, leukocyte recruitment; assay type: in vivo, Swiss Webster male mice; settings: 40 mg/kg single i.p., 15 min before 1% carrageenan into air pouch, 5 hr after carrageenan
Procedure: Air pouches were made according to standard procedures (Garcia-Ramallo et al., 2002) on Swiss Webster male mice (25-30 g) by injecting sterile air s.c. on day 0 (6 ml) and day 3 (3 ml). […] After 15 min, the animals were challenged by injecting 1 ml 1% carrageenan (in PBS) into the air pouch cavity. Five hr after carrageenan injection the animals were sacrificed, the pouches washed with PBS, exudate collected, and the total number of infiltrating cells quantitated.

[2] = tested on: rheumatoid arthritis fibroblast-like synoviocytes (RA-FLS); test: Cell invasion through Matrigel Invasion Chambers; assay type: cell-based; settings: 100 nM ISO-63 or 25 μM ISO-1, one day treatment, 24 hours incubation
Procedure: Invasion was assayed by measuring cell invasion through Matrigel Invasion Chambers (Becton Dickinson, Mass.). […] 500 μl of whole medium containing 10% FBS and 10% human serum and was added to the bottom chamber. After 24 hours of incubation at 37° C., cells on the upper surface of the filter were wiped off with a Q-tip and the filter was fixed in 4% formaldehyde/PBS. After staining with crystal violet, migrated cells were counted using an inverted microscope.

MIF, sequence (P14174 2-115): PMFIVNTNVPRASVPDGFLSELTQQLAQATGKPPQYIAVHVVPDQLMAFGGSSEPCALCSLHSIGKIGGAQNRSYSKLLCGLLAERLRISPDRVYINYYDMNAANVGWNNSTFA

## COC(=O)C[C@@H]1CC(c2ccc(O)cc2)=NO1 (racemic) [ISO-1, (S,R)-3-(4-hydroxyphenyl)-4,5-dihydro-5-isoxazole acetic acid methyl ester, reference compound]
[1]
  protection in sepsis model: 80%

## COC(=O)C[C@@H]1CC(c2ccc(O)cc2)=NO1 [(S)-ISO-1]
MIF
  less active than the (R)-isomer: 50%

## CC(C)C(OC(=O)CC1CC(c2ccc(O)c(F)c2)=NO1)C(C)C (stereo not shown) [ISO-63]
Leukocyte recruitment
  leukocyte recruitment (total number of infiltrating cells): inhibits leukocyte recruitment; also recorded: caused a significant reduction in leukocyte recruitment
[2]
  invasion of RA-FLS into Matrigel (migrated cells): inhibits the invasion; also recorded: reduced cell invasion to a much greater extent than the ISO-1 treatment
